The supplement of paper PMC10883282
Structures can show the parent of a compound that is named as a salt. ± gives the standard deviation of the averaged measurements.

Test system: SW982
Assay: relative viability vs DMSO control (72 h) (fraction); higher = more viable cells
Method in brief: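 Plates held 72 h at 37 °C and 5% CO2 contained sarcoma cell lines seeded in 384-well format to reach 80–90% confluence, plus 2.5 µl of serially diluted compound added after 24 h. Source plate concentrations ran from 10 mM to 0.0002 mM, with 0.1% DMSO as vehicle and a 5 µM positive control. Percent growth from ATPLite readings, averaged over up to triplicate wells, gave relative viability. Values were rescaled with 1 as full and 0 as none.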

| SMILES | relative viability (0.00017 µM) | relative viability (0.00051 µM) | relative viability (0.00152 µM) | relative viability (0.00457 µM) | relative viability (0.01372 µM) | relative viability (0.04115 µM) | relative viability (0.1235 µM) | relative viability (0.3704 µM) | relative viability (1.111 µM) | relative viability (3.333 µM) | relative viability (10 µM) |
| --- | --- | --- | --- | --- | --- | --- | --- | --- | --- | --- | --- |
| Cc1cc(C)c(/C=C2\C(=O)Nc3ccccc32)[nH]1 [Semaxanib] | 1.02 ± 0.03 | 1.02 ± 0.031 | 0.997 ± 0.022 | 0.9929 ± 0.0051 | 0.968 ± 0.011 | 0.96 ± 0.029 | 0.947 ± 0.03 | 0.933 ± 0.011 | 0.904 ± 0.02 | 0.879 ± 0.028 | 0.821 ± 0.041 |
| CC1(C)CNc2cc(NC(=O)c3cccnc3NCc3ccncc3)ccc21 [Motesanib] | 0.9792 ± 0.0014 | 0.972 ± 0.029 | 0.964 ± 0.039 | 0.964 ± 0.032 | 0.954 ± 0.013 | 0.933 ± 0.046 | 0.978 ± 0.042 | 0.965 ± 0.013 | 0.969 ± 0.033 | 0.9654 ± 0.0093 | 0.908 ± 0.086 |
| CNC(=O)c1ccc(-c2cnc3ncc(Cc4ccc5ncccc5c4)n3n2)cc1F [Capmatinib] | 1.04 ± 0.023 | 1.07 ± 0.045 | 1.07 ± 0.076 | 1.042 ± 0.0035 | 1.06 ± 0.067 | 1.03 ± 0.025 | 1.04 ± 0.028 | 1.06 ± 0.045 | 1.07 ± 0.06 | 1.06 ± 0.057 | 1.02 ± 0.024 |
| CC(C)N1CCN(Cc2cnc(-c3cc(-c4cccc5[nH]ccc45)cc4[nH]ncc34)o2)CC1 [Nemiralisib] | 0.946 ± 0.032 | 0.961 ± 0.044 | 0.918 ± 0.042 | 0.923 ± 0.038 | 0.954 ± 0.012 | 0.93 ± 0.061 | 0.916 ± 0.033 | 0.89 ± 0.056 | 0.805 ± 0.039 | 0.654 ± 0.032 | 0.275 ± 0.014 |
| CO[C@H]1C[C@@H]2CC[C@@H](C)[C@@](O)(O2)C(=O)C(=O)N2CCCC[C@H]2C(=O)O[C@H]([C@H](C)C[C@@H]2CC[C@@H](OP(C)(C)=O)[C@H](OC)C2)CC(=O)[C@H](C)/C=C(\C)[C@@H](O)[C@@H](OC)C(=O)[C@H](C)C[C@H](C)/C=C/C=C/C=C/1C [Ridaforolimus] | 1.05 ± 0.027 | 0.956 ± 0.041 | 0.867 ± 0.06 | 0.825 ± 0.066 | 0.755 ± 0.074 | 0.711 ± 0.036 | 0.679 ± 0.015 | 0.652 ± 0.028 | 0.652 ± 0.019 | 0.619 ± 0.0085 | 0.634 ± 0.03 |
| Nc1cc(C(F)(F)F)c(-c2cc(N3CCOCC3)nc(N3CCOCC3)n2)cn1 [Buparlisib] | 1 ± 0.025 | 1 ± 0.033 | 1.04 ± 0.031 | 1.03 ± 0.049 | 1.04 ± 0.011 | 1.02 ± 0.041 | 0.983 ± 0.035 | 0.86 ± 0.02 | 0.405 ± 0.033 | 0.146 ± 0.0066 | 0.0979 ± 0.0037 |
| Cc1ccc(F)c(NC(=O)Nc2ccc(-c3cccc4[nH]nc(N)c34)cc2)c1 [Linifanib] | 1.03 ± 0.027 | 1.08 ± 0.024 | 1.05 ± 0.035 | 1.07 ± 0.032 | 1.03 ± 0.021 | 1.06 ± 0.043 | 1.06 ± 0.019 | 1.08 ± 0.04 | 1.1 ± 0.036 | 1.12 ± 0.015 | 1.12 ± 0.04 |
| N#CC[C@H](C1CCCC1)n1cc(-c2ncnc3[nH]ccc23)cn1 [Ruxolitinib] | 0.96 ± 0.072 | 0.971 ± 0.05 | 0.964 ± 0.049 | 0.949 ± 0.054 | 0.939 ± 0.058 | 0.919 ± 0.061 | 0.915 ± 0.019 | 0.879 ± 0.02 | 0.842 ± 0.015 | 0.7741 ± 0.005 | 0.614 ± 0.022 |
| C=CC(=O)Nc1cccc(Oc2nc(Nc3ccc(N4CCN(C)CC4)cc3)nc3ccsc23)c1 [Olmutinib] | 1.01 ± 0.024 | 1.01 ± 0.02 | 0.98 ± 0.01 | 1 ± 0.028 | 1.02 ± 0.016 | 1.01 ± 0.025 | 1 ± 0.011 | 0.969 ± 0.077 | 0.822 ± 0.065 | 0.663 ± 0.029 | 0.317 ± 0.033 |
| CCCS(=O)(=O)Nc1ccc(F)c(C(=O)c2c[nH]c3ncc(-c4ccc(Cl)cc4)cc23)c1F [Vemurafenib] | 1.04 ± 0.063 | 1.08 ± 0.048 | 1.05 ± 0.027 | 1.03 ± 0.029 | 1.06 ± 0.053 | 1.02 ± 0.045 | 0.9867 ± 0.0019 | 0.988 ± 0.039 | 1.01 ± 0.029 | 0.794 ± 0.035 | 0.532 ± 0.02 |
| Cc1ccc(NC(=O)c2ccc(CN3CCN(C)CC3)cc2)cc1Nc1nc(-c2cccnc2)cs1 [Masitinib] | 0.965 ± 0.027 | 0.996 ± 0.01 | 0.989 ± 0.015 | 0.983 ± 0.02 | 0.97 ± 0.026 | 0.961 ± 0.033 | 0.923 ± 0.025 | 0.89 ± 0.027 | 0.784 ± 0.045 | 0.513 ± 0.03 | 0.0613 ± 0.0081 |
| Cc1cnc(Nc2ccc(OCCN3CCCC3)cc2)nc1Nc1cccc(S(=O)(=O)NC(C)(C)C)c1 [Fedratinib] | 1.03 ± 0.012 | 1.03 ± 0.033 | 1.07 ± 0.021 | 1.07 ± 0.016 | 1.088 ± 0.0018 | 1.06 ± 0.024 | 0.846 ± 0.052 | 0.394 ± 0.013 | 0.161 ± 0.0068 | 0.0074 ± 0.0013 | 0.00487 ± 0.00038 |
| C[C@@H](c1ccc2nccn2c1)n1nnc2ncc(-c3cnn(C)c3)nc21 [Volitinib] | 1.05 ± 0.02 | 1.07 ± 0.012 | 1.05 ± 0.012 | 1.05 ± 0.056 | 1.07 ± 0.03 | 1.06 ± 0.022 | 1.03 ± 0.021 | 1.07 ± 0.016 | 1.04 ± 0.034 | 1.07 ± 0.011 | 1.06 ± 0.025 |
| COc1cccc2c1C(=O)c1c(O)c3c(c(O)c1C2=O)C[C@@](O)(C(=O)CO)C[C@@H]3O[C@H]1C[C@H](N)[C@H](O)[C@H](C)O1 [Doxorubicin Hydrochloride] | 1.05 ± 0.0095 | 1.05 ± 0.057 | 1.07 ± 0.025 | 1.04 ± 0.035 | 0.796 ± 0.022 | 0.457 ± 0.025 | 0.326 ± 0.019 | 0.1607 ± 0.0012 | 0.127 ± 0.0062 | 0.165 ± 0.005 | 0.139 ± 0.0092 |
| CCN1CCN(Cc2ccc(Nc3ncc(F)c(-c4cc(F)c5nc(C)n(C(C)C)c5c4)n3)nc2)CC1 [Abemaciclib] | 1.05 ± 0.036 | 1.06 ± 0.046 | 1.04 ± 0.043 | 1.06 ± 0.041 | 1.07 ± 0.035 | 0.987 ± 0.031 | 0.787 ± 0.046 | 0.593 ± 0.02 | 0.469 ± 0.013 | 0.302 ± 0.12 | 0.0803 ± 0.12 |
| C=CC(=O)N1CCC([C@@H]2CCNc3c(C(N)=O)c(-c4ccc(Oc5ccccc5)cc4)nn32)CC1 [Zanubrutinib] | 0.96 ± 0.026 | 0.968 ± 0.017 | 0.944 ± 0.03 | 0.958 ± 0.013 | 0.949 ± 0.027 | 0.96 ± 0.017 | 0.909 ± 0.019 | 0.893 ± 0.052 | 0.827 ± 0.025 | 0.771 ± 0.04 | 0.731 ± 0.045 |
| COc1cc2/c(=N/c3ccc(Br)cc3F)nc[nH]c2cc1OCC1CCN(C)CC1 [Vandetanib] | 0.997 ± 0.044 | 1 ± 0.035 | 0.977 ± 0.021 | 1.01 ± 0.033 | 1.01 ± 0.078 | 1.03 ± 0.041 | 0.983 ± 0.075 | 0.873 ± 0.077 | 0.699 ± 0.084 | 0.291 ± 0.032 | 0.0207 ± 0.0067 |
| C[C@@H]1COCCN1c1cc(-c2ccnn2C)c2ccnc(-c3ccn[nH]3)c2n1 | 1.04 ± 0.031 | 1.05 ± 0.052 | 1.05 ± 0.056 | 1.04 ± 0.015 | 0.989 ± 0.028 | 0.685 ± 0.039 | 0.499 ± 0.009 | 0.322 ± 0.011 | 0.1893 ± 0.0012 | 0.149 ± 0.002 | 0.142 ± 0.0075 |
| C[C@]1(O)C[C@@H](c2nc(-c3ccc4ccc(-c5ccccc5)nc4c3)c3c(N)nccn32)C1 [Linsitinib] | 1.01 ± 0.028 | 1.04 ± 0.026 | 1.03 ± 0.028 | 1.05 ± 0.031 | 1.05 ± 0.028 | 1.02 ± 0.041 | 0.918 ± 0.041 | 0.875 ± 0.035 | 0.824 ± 0.045 | 0.79 ± 0.035 | 0.583 ± 0.021 |
